# Test results from US20260234147A1 (priority 2023, published 2026).
# Read-outs that look alike come from different tables or passages of the source.
# Tests used:
# hDOR = hDOR (Homo sapiens, UniProt P41143); experiment: Radioligand binding assay (Eurofins Cerep), [3H]DADLE displacement
# hMOR [1] = biological target: T1, hMOR (Homo sapiens, UniProt P35372); experiment: cell-based; design: expressed in transfected cells; settings: for Emax: CHO
# α2A adrenergic receptor = biological target: T2, α2A adrenergic receptor (Homo sapiens, UniProt P08913); experiment: Radioligand binding assay (Eurofins Cerep), [3H]RX 821002 displacement
# T2 construct: Eurofins Cerep (contract screening)
# T2 sequence (P08913 1-465): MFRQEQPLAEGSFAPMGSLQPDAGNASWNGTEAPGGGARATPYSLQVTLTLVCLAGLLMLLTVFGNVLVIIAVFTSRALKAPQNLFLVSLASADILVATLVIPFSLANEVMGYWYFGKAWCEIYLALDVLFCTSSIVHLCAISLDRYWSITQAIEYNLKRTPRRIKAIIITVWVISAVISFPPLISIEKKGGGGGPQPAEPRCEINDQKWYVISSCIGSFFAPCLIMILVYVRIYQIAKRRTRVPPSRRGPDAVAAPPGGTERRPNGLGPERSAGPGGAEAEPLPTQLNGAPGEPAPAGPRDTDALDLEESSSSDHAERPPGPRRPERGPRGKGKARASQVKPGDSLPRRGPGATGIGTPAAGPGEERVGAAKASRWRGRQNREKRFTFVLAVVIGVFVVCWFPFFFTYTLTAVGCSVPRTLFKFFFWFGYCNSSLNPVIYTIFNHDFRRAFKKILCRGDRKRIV
# [2] = Metabolic stability in rat liver microsomes; type: in vitro ADME; settings: for RLM stability: rat liver microsomes 1 mg/ml, substrate 1 μM, NADPH, 37° C.
# Experimental: In vitro metabolic stability of each compound was determined using rat liver microsomes in triplicate. Verapamil was used as a positive control to check the activity of the microsomes. The incubation mixtures consisted of rat liver microsomes (1 mg microsomal protein/ml), substrate (1 μM), and reduced NADPH (1 mM) in a total volume of 0.4 ml potassium phosphate buffer (50 mM, pH 7.4). Reactions were initiated with the addition of NADPH and kept in an incubator shaker at 37° C. Aliquots of 25 μl were withdrawn at 0, 5, 10, 15, 30, and 60 min and mixed with 125 μl of acetonitrile with formic acid (0.1% v/v) containing phenacetin (50 ng/ml; internal standard) for the termination of the reaction. The samples were then vortex mixed and filtered through a […] 96-well membrane filtration plate under centrifugation at speed of 2000×g for 5 min at 4° C. The filtrates were subjected to UPLC-mass spectrometry (MS/MS) analysis.
# The intrinsic clearance of the compounds was calculated using a half-life employing the ‘substrate depletion’ approach. The apparent half-life was calculated from the pseudo-first-order rate constants obtained by linear regression of log (concentration) and time plots. The in vitro intrinsic clearance of IFN was estimated using the formula: […]
# Where k is the slope of the line obtained by plotting the natural logarithmic of the percentage of parent remaining versus time and V is the volume of incubation.
# The in vitro intrinsic clearance was scaled to whole-organ (hepatic) in vivo intrinsic CL (CLint,H) using the scaling factors available in the literature using equation (Mahmood I. Application of allometric principles for the prediction of pharmacokinetics in human and veterinary drug development. Advanced drug delivery reviews, 2007, 59(11), 1177-1192)
# MPPGL represents the microsomal protein per gram of Sprague Dawley rat liver (45 mg/g) and liver weight per kg body weight was 40 g/kg.
# hKOR = hKOR (Homo sapiens, UniProt P41145); experiment: Radioligand binding assay (Eurofins Cerep), [3H]U69,593 displacement; settings: read-out: KOR Ki ± SEM
# hMOR [3] = biological target: T1, hMOR; experiment: Cyclic adenosine 3′,5′-monophosphate (cAMP) assay in hMOR-CHO cells; type: cell-based; settings: N=1, control agonist DAMGO
# α2C adrenergic receptor = biological target: T3, α2C adrenergic receptor (Homo sapiens, UniProt P18825); experiment: Radioligand binding assay (Eurofins Cerep), [3H]RX 821002 displacement; settings: Table A1, data summary #1; read-out: Alpha2C Ki ± SEM
# T3 construct: Eurofins Cerep (contract screening)
# T3 sequence (P18825 1-462): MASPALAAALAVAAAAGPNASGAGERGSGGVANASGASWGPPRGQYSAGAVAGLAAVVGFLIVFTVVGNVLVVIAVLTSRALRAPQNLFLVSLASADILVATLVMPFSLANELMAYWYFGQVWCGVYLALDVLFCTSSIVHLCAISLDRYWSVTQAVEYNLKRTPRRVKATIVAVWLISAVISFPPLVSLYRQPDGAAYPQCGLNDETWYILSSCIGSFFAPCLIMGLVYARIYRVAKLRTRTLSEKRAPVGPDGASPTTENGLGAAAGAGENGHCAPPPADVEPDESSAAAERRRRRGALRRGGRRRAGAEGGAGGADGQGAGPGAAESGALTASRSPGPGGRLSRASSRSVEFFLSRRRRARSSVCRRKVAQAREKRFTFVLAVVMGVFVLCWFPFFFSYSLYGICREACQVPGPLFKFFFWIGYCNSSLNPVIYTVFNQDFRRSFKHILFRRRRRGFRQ
# hMOR [4] = biological target: T1, hMOR; experiment: Radioligand binding assay (Eurofins Cerep), [3H]DAMGO displacement
# [5] = DOR Ki ± SEM (nM), Table A1, data summary #1
# [6] = DOR Ki ± SEM (nM), Table A4, data summary #2
# [7] = Alpha2A Ki ± SEM (nM), Table A4, data summary #2
# [8] = Table A4, data summary #2, read-out: MOR Ki ± SEM
# Sequence of hDOR (P41143 whole entry): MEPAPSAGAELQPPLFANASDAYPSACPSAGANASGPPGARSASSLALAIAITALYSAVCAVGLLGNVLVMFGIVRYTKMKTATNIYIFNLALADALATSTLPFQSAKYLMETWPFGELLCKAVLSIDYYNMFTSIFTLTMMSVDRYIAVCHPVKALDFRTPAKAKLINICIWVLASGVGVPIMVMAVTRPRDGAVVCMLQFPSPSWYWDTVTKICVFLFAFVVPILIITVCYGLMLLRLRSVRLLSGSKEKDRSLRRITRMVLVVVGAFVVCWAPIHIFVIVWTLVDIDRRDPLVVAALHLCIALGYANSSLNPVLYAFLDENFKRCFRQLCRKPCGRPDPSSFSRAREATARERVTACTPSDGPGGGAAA
# Sequence of hKOR (P41145 whole entry): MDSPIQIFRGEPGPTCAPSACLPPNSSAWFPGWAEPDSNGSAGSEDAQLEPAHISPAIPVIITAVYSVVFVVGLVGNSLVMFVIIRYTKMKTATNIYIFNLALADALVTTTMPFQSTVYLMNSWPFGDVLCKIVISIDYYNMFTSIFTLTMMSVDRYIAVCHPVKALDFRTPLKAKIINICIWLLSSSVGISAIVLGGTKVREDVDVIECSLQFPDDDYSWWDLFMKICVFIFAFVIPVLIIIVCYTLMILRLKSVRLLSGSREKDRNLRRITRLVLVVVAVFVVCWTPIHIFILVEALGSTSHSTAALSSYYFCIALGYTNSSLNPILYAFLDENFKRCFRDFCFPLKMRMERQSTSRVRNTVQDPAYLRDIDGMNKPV
# T1 sequence (P35372 whole entry): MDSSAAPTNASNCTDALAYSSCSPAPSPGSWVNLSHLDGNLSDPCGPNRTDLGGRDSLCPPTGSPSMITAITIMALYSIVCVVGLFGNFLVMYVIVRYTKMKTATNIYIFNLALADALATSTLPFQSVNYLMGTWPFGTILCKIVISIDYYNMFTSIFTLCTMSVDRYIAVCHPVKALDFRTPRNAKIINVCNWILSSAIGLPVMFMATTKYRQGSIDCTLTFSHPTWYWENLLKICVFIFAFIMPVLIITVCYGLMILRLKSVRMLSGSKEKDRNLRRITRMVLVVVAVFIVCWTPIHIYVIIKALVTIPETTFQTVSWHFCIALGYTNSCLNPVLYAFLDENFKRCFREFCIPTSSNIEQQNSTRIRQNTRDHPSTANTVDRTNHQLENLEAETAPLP
compound,measurement,setting,value
"CC[C@@H]1CN2CCc3c([nH]c4cccc(OC)c34)[C@@H]2C[C@@H]1/C(=C\OC)C(=O)N(C)C [SUSM-501, (E)-2-((2S,3S,12bS)-3-ethyl-8-methoxy-1,2,3,4,6,7,12,12b-octahydroindolo[2,3-a]quinolizin-2-yl)-3-methoxy-N,N-dimethylacrylamide]",Ki,hDOR; [5],6490 ± 3030 nM
same,Ki,hDOR; [6],6490 ± 3030 nM
same,functional character at MOR,hMOR [1],partial antagonist
same,Emax,"hMOR [1]; read-out: MOR Emax ± SEM (% DAMGO), Table A1, data summary #1",-4.05 ± 4.03%
same,Emax,"hMOR [1]; read-out: Emax, functional activity at MOR",-4.05%
same,Ki,"α2A adrenergic receptor; Alpha2A Ki ± SEM (nM), Table A1, data summary #1",1810 ± 319 nM
same,Ki,α2A adrenergic receptor; [7],1810 ± 319 nM
same,"Whole liver clearance, CL int, H",[2]; in vitro intrinsic clearance in RLM scaled to whole organ (rat),128.8 mL/min/kg
same,RLM stability,[2],6 min
same,Ki,"hKOR; Table A1, data summary #1",3.07 ± 0.569 µM
same,Ki,"hKOR; Table A4, data summary #2",3.07 ± 0.569 µM
same,functional activity in cAMP assay,hMOR [3],partial agonist activity
same,functional activity in cAMP assay,hMOR [3]; listed as SUSM 501,partial agonist
same,Ki,α2C adrenergic receptor,0.42 ± 0.113 µM
same,Ki,"hMOR [4]; Table A1, data summary #1, read-out: MOR Ki ± SEM",0.429 ± 0.0757 µM
same,Ki,hMOR [4]; [8],0.429 ± 0.0757 µM
"CC[C@@H]1CN2CCc3c([nH]c4cccc(OC)c34)[C@@H]2C[C@@H]1/C(=C\OC)C(=O)N(C)C1CCCCC1 [SUSM-523, (E)-N-cyclohexyl-2-((2S,3S,12bS)-3-ethyl-8-methoxy-1,2,3,4,6,7,12,12b-octahydroindolo[2,3-a]quinolizin-2-yl)-3-methoxy-N-methylacrylamide]",Ki,hDOR; [5],6490 ± 962 nM
same,Ki,hDOR; [6],8290 ± 1020 nM
same,Ki,α2A adrenergic receptor; [7],187 ± 29 nM
same,RLM stability,[2],<5 min
same,Ki,"hKOR; Table A1, data summary #1",2.64 ± 0.685 µM
same,Ki,"hKOR; Table A4, data summary #2",1.95 ± 0.611 µM
same,functional activity in cAMP assay,hMOR [3],antagonists
same,functional activity in cAMP assay,hMOR [3]; listed as SUSM 523,antagonist
same,Ki,hMOR [4]; [8],0.049 ± 0.014 µM
same,Ki,hMOR [4]; read-out: Ki at hMOR,0.0819 µM
"CC[C@@H]1CN2CC[C@@]3(O)C(=Nc4cccc(OC)c43)[C@@H]2C[C@@H]1/C(=C\OC)C(=O)N(C)C [SUSM-524, (E)-2-((2S,3S,7aS,12bS)-3-ethyl-7a-hydroxy-8-methoxy-1,2,3,4,6,7,7a,12b-octahydroindolo[2,3-a]quinolizin-2-yl)-3-methoxy-N,N-dimethylacrylamide]",Ki,"hDOR; Table A4, data summary #2, read-out: DOR Ki ± SEM",802 ± 212 nM
same,Ki,"α2A adrenergic receptor; Table A4, data summary #2, read-out: Alpha2A Ki ± SEM",> 10000 nM
same,RLM stability,[2],<5 min
same,Ki,"hKOR; Table A1, data summary #1",9.15 ± 1.1 µM
same,Ki,"hKOR; Table A4, data summary #2",9.15 ± 1.1 µM
same,functional activity in cAMP assay,hMOR [3],agonist activity
same,functional activity in cAMP assay,hMOR [3]; listed as SUSM 524,agonist
same,potency at MOR relative to SUSM-501,hMOR [4],4 fold
same,Ki,hMOR [4]; [8],0.09 ± 0.014 µM
same,Ki,hMOR [4]; read-out: Ki at hMOR,0.11 µM
